Here are results for twelve compounds from patent US8389523B2, “Substituted quinoxaline and an agrochemical composition thereof” (Kumiai Chemical Industry Co., Ltd., priority 2007, dated 2013).

Structures are written as SMILES.

Holding throughout (assay type): in vivo
What all share (design):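 grade 0 to 5 of growth suppression where 5 is 90% or more and 0 below 10%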

Test [1] deals with Echinochloa oryzicola Vasing. In words: Herbicidal effects in paddy field soil treatment (Test Example 1). The settings on record: paddy field soil treatment; 1000 g of the active ingredient per hectare; wettable powder added dropwise on water surface; 21st day after treatment. The gist of the method:
(§1)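 Paddy soil pre-emergence test: seeds sown, flooded 3 cm; next day wettable powder in water applied dropwise to water surface, 1000 g a.i./ha; greenhouse; effect rated visually on scale at 21 d post-treatment.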

The test system of test [2] is Monochoria vaginalis (Burm. f.) Presl var. plantaginea (Roxb.) Solms-Laub. Described as above. The settings on record: paddy field soil treatment; 1000 g of the active ingredient per hectare; wettable powder added dropwise on water surface; 21st day after treatment. The method, boiled down: as §1
The subject of test [3] is Scirpus juncoides Roxb. var. ohwianus. T. Koyama. The test is described as above. The settings on record: paddy field soil treatment; 1000 g of the active ingredient per hectare; wettable powder added dropwise on water surface; 21st day after treatment. The gist of the method: as §1
In test [4] the test system is Amaranthus viridis L. In words: Herbicidal effects in upland field soil treatment (Test Example 2). The settings on record: 1000 g active ingredient per hectare, 21st day after treatment, criteria of Table 138. The method, boiled down:
(§2)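 Seeds sown in upland soil and covered; surface sprayed with water-diluted wettable powder, 1000 g a.i./ha, spray volume 1000 L/ha. Greenhouse growth, visual herbicidal rating at day 21.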

Test [5] concerns Abutilon theophrasti medicus. The description is as above. The settings on record: 1000 g active ingredient per hectare, 21st day after treatment, criteria of Table 138. The method, boiled down:
as §2

Test [6] deals with Echinochloa crus-galli (L.) P. Beauv. var. crus-galli. In words: Herbicidal effects in upland field foliar treatment (Test Example 3). The settings on record: criteria of Table 138; for herbicidal effect (index) on Echinochloa crus-galli (L.) P. Beauv. var. crus-galli: 1000 g active ingredient per hectare, 14th day after treatment; for herbicidal effects on Echinochloa crus-galli (L.) P. Beauv. var. crus-galli: 1000 g of the active ingredient per hectare, 14th day after the treatment, wettable powder. The gist of the method: (§3)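 Greenhouse pot test, upland soil; 2-wk-old plants sprayed from above with water-diluted wettable powder (1000 L/ha spray volume, 1000 g a.i./ha). Regrown in greenhouse; visual herbicidal score on day 14 post-treatment.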

The test system of test [7] is Amaranthus viridis L. The description is as above. The settings on record: criteria of Table 138; for herbicidal effect (index) on Amaranthus viridis L.: 1000 g active ingredient per hectare, 14th day after treatment; for herbicidal effects on Amaranthus viridis L.: 1000 g of the active ingredient per hectare, 14th day after the treatment, wettable powder. The method, boiled down:
as §3

In test [8] the test system is Abutilon theophrasti medicus. The test is described as above. The settings on record: criteria of Table 138; for herbicidal effect (index) on Abutilon theophrasti medicus: 1000 g active ingredient per hectare, 14th day after treatment; for herbicidal effects on Abutilon theophrasti medicus: 1000 g of the active ingredient per hectare, 14th day after the treatment, wettable powder. The method, boiled down: as §3

Turning to `O=C1CCCC(O)=C1C(=O)c1nc2ccccc2n(-c2nc(C(F)(F)F)co2)c1=O` [I-268], in test [1], the “Herbicidal effects index, Echinochloa oryzicola Vasing” value is given as 5. Moreover, the “Herbicidal effects index, Monochoria vaginalis (Burm. f.) Presl var. plantaginea (Roxb.) Solms-Laub.” value (“Herbicidal effects index … (Roxb.) Solms-Laub.” below) in test [2] is on record as 5. Moreover, the “Herbicidal effects index, Scirpus juncoides Roxb. var. ohwianus. T. Koyama” value in test [3] is 5. Also, the “herbicidal effect (index) on Amaranthus viridis L.” value in the test on Amaranthus viridis L. [4] and with Amaranthus viridis L. [7] was 5 each time. Further, the “herbicidal effect (index) on Abutilon theophrasti medicus” value in test [5] and in test [8] was 5 throughout. Moreover, the “herbicidal effect (index) on Echinochloa crus-galli (L.) P. Beauv. var. crus-galli” value in test [6] is on record as 5.
Consider `COCn1c(=O)c(C(=O)C2=C(O)CCCC2=O)nc2ccccc21` [I-49], for which the “Herbicidal effects index, Echinochloa oryzicola Vasing” value in test [1] was found to be 5. For the same compound, the “Herbicidal effects index … (Roxb.) Solms-Laub.” value in test [2] is on record as 5. The “Herbicidal effects index, Scirpus juncoides Roxb. var. ohwianus. T. Koyama” value in test [3] is listed as 5. The “herbicidal effect (index) on Amaranthus viridis L.” value with Amaranthus viridis L. [4] and in the test on Amaranthus viridis L. [7] was 5 each time. Also, the “herbicidal effect (index) on Abutilon theophrasti medicus” value in test [5] and in test [8] was 5 each time. Also, in test [6], the “herbicidal effect (index) on Echinochloa crus-galli (L.) P. Beauv. var. crus-galli” value was 4.
Consider `COc1cc(-n2c(=O)c(C(=O)C3=C(O)CCCC3=O)nc3ccccc32)ccc1C` [II-168], for which, in test [1], the “Herbicidal effects index, Echinochloa oryzicola Vasing” value is 5. The “Herbicidal effects index … (Roxb.) Solms-Laub.” value in test [2] came to 5. Besides, the “Herbicidal effects index, Scirpus juncoides Roxb. var. ohwianus. T. Koyama” value in test [3] came out at 5. Besides, in the test on Amaranthus viridis L. [4], the “herbicidal effect (index) on Amaranthus viridis L.” value was determined as 5. For the same compound, the “herbicidal effect (index) on Abutilon theophrasti medicus” value in test [5] is recorded as 5. In addition, the “herbicidal effects on Echinochloa crus-galli (L.) P. Beauv. var. crus-galli” value in test [6] came to 4. Also, the “herbicidal effects on Amaranthus viridis L.” value in the test with Amaranthus viridis L. [7] turned out to be 5. Besides, in test [8], the “herbicidal effects on Abutilon theophrasti medicus” value was 5.
On to `Cn1c(=O)c(C(=O)C2=C(O)CCCC2=O)nc2cccnc21` [III-2], for which the “Herbicidal effects index, Echinochloa oryzicola Vasing” value in test [1] is given as 5. For the same compound, the “Herbicidal effects index … (Roxb.) Solms-Laub.” value in test [2] is reported as 5. Also, the “Herbicidal effects index, Scirpus juncoides Roxb. var. ohwianus. T. Koyama” value in test [3] stood at 5. Besides, the “herbicidal effect (index) on Amaranthus viridis L.” value with Amaranthus viridis L. [4] is 5. Also, in test [5], the “herbicidal effect (index) on Abutilon theophrasti medicus” value was found to be 5. The “herbicidal effects on Echinochloa crus-galli (L.) P. Beauv. var. crus-galli” value in test [6] came out at 5. Moreover, the “herbicidal effects on Amaranthus viridis L.” value in the test on Amaranthus viridis L. [7] worked out at 5. In addition, the “herbicidal effects on Abutilon theophrasti medicus” value in test [8] amounted to 5.
For the compound `Cn1nc(C(F)(F)F)cc1-n1c(=O)c(C(=O)C2=C(O)CCCC2=O)nc2ccccc21` [I-158], the “Herbicidal effects index, Echinochloa oryzicola Vasing” value in test [1] was 5. Moreover, the “Herbicidal effects index … (Roxb.) Solms-Laub.” value in test [2] was 5. In addition, the “Herbicidal effects index, Scirpus juncoides Roxb. var. ohwianus. T. Koyama” value in test [3] stood at 5. In addition, the “herbicidal effect (index) on Amaranthus viridis L.” value in the test on Amaranthus viridis L. [4] and in the test on Amaranthus viridis L. [7] was 5 each time. In addition, the “herbicidal effect (index) on Abutilon theophrasti medicus” value in test [5] and in test [8] was 5 throughout. Moreover, the “herbicidal effect (index) on Echinochloa crus-galli (L.) P. Beauv. var. crus-galli” value in test [6] is on record as 5.
`O=C(C1=C(O)C2CCC(C2)C1=O)c1nc2ccccc2n(-c2ccccc2)c1=O` (stereo not drawn) [II-4]: the “Herbicidal effects index, Echinochloa oryzicola Vasing” value in test [1] worked out at 5. Also, the “Herbicidal effects index … (Roxb.) Solms-Laub.” value in test [2] is given as 5. In test [3], the “Herbicidal effects index, Scirpus juncoides Roxb. var. ohwianus. T. Koyama” value was determined as 5. In addition, the “herbicidal effect (index) on Amaranthus viridis L.” value in the test on Amaranthus viridis L. [4] and in the test with Amaranthus viridis L. [7] was 5 in each case. The results for the “herbicidal effect (index) on Abutilon theophrasti medicus” value in test [5] and in test [8] were 4 and 5, respectively. In addition, in test [6], the “herbicidal effect (index) on Echinochloa crus-galli (L.) P. Beauv. var. crus-galli” value is recorded as 4.
Consider `Cc1cccc2c1nc(C(=O)C1=C(O)CCCC1=O)c(=O)n2-c1ccccc1` [II-244], for which the “Herbicidal effects index, Echinochloa oryzicola Vasing” value in test [1] came out at 5. Moreover, the “Herbicidal effects index … (Roxb.) Solms-Laub.” value in test [2] amounted to 5. In addition, the “Herbicidal effects index, Scirpus juncoides Roxb. var. ohwianus. T. Koyama” value in test [3] is listed as 5. In addition, the “herbicidal effect (index) on Amaranthus viridis L.” value in the test with Amaranthus viridis L. [4] came out at 5. Besides, in test [5], the “herbicidal effect (index) on Abutilon theophrasti medicus” value is 5. For the same compound, the “herbicidal effects on Echinochloa crus-galli (L.) P. Beauv. var. crus-galli” value in test [6] worked out at 5. In the test with Amaranthus viridis L. [7], the “herbicidal effects on Amaranthus viridis L.” value was 5. For the same compound, the “herbicidal effects on Abutilon theophrasti medicus” value in test [8] worked out at 5.
For the compound `O=C1CCCC(O)=C1C(=O)c1nc2ccccc2n(-c2ccc(OCC3CC3)cc2)c1=O` [II-208], the “Herbicidal effects index, Echinochloa oryzicola Vasing” value in test [1] was 5. Also, the “Herbicidal effects index … (Roxb.) Solms-Laub.” value in test [2] is on record as 5. The “Herbicidal effects index, Scirpus juncoides Roxb. var. ohwianus. T. Koyama” value in test [3] is reported as 5. Moreover, in the test with Amaranthus viridis L. [4], the “herbicidal effect (index) on Amaranthus viridis L.” value worked out at 5. Moreover, in test [5], the “herbicidal effect (index) on Abutilon theophrasti medicus” value was 5. The “herbicidal effects on Echinochloa crus-galli (L.) P. Beauv. var. crus-galli” value in test [6] stood at 4. Further, in the test with Amaranthus viridis L. [7], the “herbicidal effects on Amaranthus viridis L.” value is 5. Further, in test [8], the “herbicidal effects on Abutilon theophrasti medicus” value was found to be 5.
For the compound `O=C1CCCC(O)=C1C(=O)c1nc2ccccc2n(C2=NOCC2)c1=O` [I-131], the “Herbicidal effects index, Echinochloa oryzicola Vasing” value in test [1] is given as 5. The “Herbicidal effects index … (Roxb.) Solms-Laub.” value in test [2] amounted to 5. Besides, the “Herbicidal effects index, Scirpus juncoides Roxb. var. ohwianus. T. Koyama” value in test [3] was found to be 5. The “herbicidal effect (index) on Amaranthus viridis L.” value in the test on Amaranthus viridis L. [4] and in the test with Amaranthus viridis L. [7] was 5 throughout. For the same compound, the “herbicidal effect (index) on Abutilon theophrasti medicus” value in test [5] and in test [8] was 5 throughout. Moreover, the “herbicidal effect (index) on Echinochloa crus-galli (L.) P. Beauv. var. crus-galli” value in test [6] worked out at 5.
For the compound `COc1ccccc1-n1c(=O)c(C(=O)C2=C(O)CCCC2=O)nc2ccccc21` [II-52], in test [1], the “Herbicidal effects index, Echinochloa oryzicola Vasing” value was 5. In test [2], the “Herbicidal effects index … (Roxb.) Solms-Laub.” value is given as 5. Also, the “Herbicidal effects index, Scirpus juncoides Roxb. var. ohwianus. T. Koyama” value in test [3] came out at 5. Further, in the test with Amaranthus viridis L. [4], the “herbicidal effect (index) on Amaranthus viridis L.” value amounted to 5. In test [5], the “herbicidal effect (index) on Abutilon theophrasti medicus” value came out at 5. Moreover, the “herbicidal effects on Echinochloa crus-galli (L.) P. Beauv. var. crus-galli” value in test [6] came out at 5. Besides, the “herbicidal effects on Amaranthus viridis L.” value in the test with Amaranthus viridis L. [7] came to 5. The “herbicidal effects on Abutilon theophrasti medicus” value in test [8] was 5.
Consider `O=C1CCCC(O)=C1C(=O)c1nc2ccccc2n(C2CC2)c1=O` [Compound I-14], for which, in test [1], the “Herbicidal effects index, Echinochloa oryzicola Vasing” value stood at 4. Moreover, in test [2], the “Herbicidal effects index … (Roxb.) Solms-Laub.” value came out at 5. For the same compound, the “Herbicidal effects index, Scirpus juncoides Roxb. var. ohwianus. T. Koyama” value in test [3] is given as 5. In addition, the “herbicidal effect (index) on Amaranthus viridis L.” value with Amaranthus viridis L. [4] and with Amaranthus viridis L. [7] was 5 throughout. The “herbicidal effect (index) on Abutilon theophrasti medicus” value in test [5] and in test [8] was 5 throughout. In test [6], the “herbicidal effect (index) on Echinochloa crus-galli (L.) P. Beauv. var. crus-galli” value was 4.
Regarding `O=C1CCCC(O)=C1C(=O)c1nc2cccnc2n(Cc2ccccc2Cl)c1=O` [III-111], the “Herbicidal effects index, Echinochloa oryzicola Vasing” value in test [1] is recorded as 5. Also, the “Herbicidal effects index … (Roxb.) Solms-Laub.” value in test [2] is given as 5. The “Herbicidal effects index, Scirpus juncoides Roxb. var. ohwianus. T. Koyama” value in test [3] turned out to be 5. The “herbicidal effect (index) on Amaranthus viridis L.” value in the test on Amaranthus viridis L. [4] is reported as 5. Further, the “herbicidal effect (index) on Abutilon theophrasti medicus” value in test [5] is given as 5. Besides, the “herbicidal effects on Echinochloa crus-galli (L.) P. Beauv. var. crus-galli” value in test [6] is on record as 5. Further, the “herbicidal effects on Amaranthus viridis L.” value in the test on Amaranthus viridis L. [7] came out at 5. The “herbicidal effects on Abutilon theophrasti medicus” value in test [8] amounted to 5.
